From ChEMBL document CHEMBL4138259, “Discovery of JTZ-951: A HIF Prolyl Hydroxylase Inhibitor for the Treatment of Renal Anemia” (ACS Med Chem Lett, 2017)
Calls of active or inactive are those of the source. The calls are words filed in the database; no cut-off is given here.

What was measured:
[1] = in vitro; settings: human, Caco-2
[2] = tested on: Mus musculus; assay: Upregulation of plasma EPO level in Balb/c mouse at 10 mg/kg, po administered as single dose measured after 8 hrs by ELISA; format: functional
[3] = tested on: Rattus norvegicus; assay: Upregulation of plasma EPO level in CD(SD) rat at 10 mg/kg, po administered as single dose measured after 8 hrs by RIA; format: functional
[4] = tested on: Rattus norvegicus; assay: Toxicity in CD(SD) rat assessed as induction of anorexia at 100 mg/kg, po administered as single dose; format: organism-based; settings: in vivo
[5] = molecular target: T1, Cytochrome P450 1A2 (Homo sapiens, UniProt P05177); assay: Inhibition of CYP1A2 in human liver microsomes by LC-MS/MS analysis; format: ADME
T1 sequence (P05177 whole entry): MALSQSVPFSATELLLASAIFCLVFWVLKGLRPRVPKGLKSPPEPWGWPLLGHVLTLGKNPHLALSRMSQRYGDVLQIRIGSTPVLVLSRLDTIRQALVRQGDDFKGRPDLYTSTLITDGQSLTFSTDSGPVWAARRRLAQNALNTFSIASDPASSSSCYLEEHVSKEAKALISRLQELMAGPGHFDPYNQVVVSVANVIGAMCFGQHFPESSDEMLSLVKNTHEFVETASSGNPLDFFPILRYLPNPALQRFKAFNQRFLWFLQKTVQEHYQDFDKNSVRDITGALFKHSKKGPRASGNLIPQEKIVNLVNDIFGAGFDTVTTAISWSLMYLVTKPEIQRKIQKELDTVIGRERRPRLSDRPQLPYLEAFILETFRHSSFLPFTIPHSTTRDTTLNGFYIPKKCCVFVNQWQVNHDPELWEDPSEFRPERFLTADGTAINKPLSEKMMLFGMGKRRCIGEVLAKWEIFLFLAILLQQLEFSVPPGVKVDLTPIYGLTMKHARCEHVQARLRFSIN

[6] = tested on: Rattus norvegicus; assay: Antianemic activity in po dosed CD(SD) rat assessed as increase in hemoglobin levels administered once daily for 28 days; format: functional, organism-based
[7] = molecular target: Cytochrome P450 3A5 (Homo sapiens, UniProt P20815); assay: Inhibition of CYP3A5 in human liver microsomes using midazolam as substrate by LC-MS/MS analysis; format: ADME
Cytochrome P450 3A5, sequence (P20815 whole entry): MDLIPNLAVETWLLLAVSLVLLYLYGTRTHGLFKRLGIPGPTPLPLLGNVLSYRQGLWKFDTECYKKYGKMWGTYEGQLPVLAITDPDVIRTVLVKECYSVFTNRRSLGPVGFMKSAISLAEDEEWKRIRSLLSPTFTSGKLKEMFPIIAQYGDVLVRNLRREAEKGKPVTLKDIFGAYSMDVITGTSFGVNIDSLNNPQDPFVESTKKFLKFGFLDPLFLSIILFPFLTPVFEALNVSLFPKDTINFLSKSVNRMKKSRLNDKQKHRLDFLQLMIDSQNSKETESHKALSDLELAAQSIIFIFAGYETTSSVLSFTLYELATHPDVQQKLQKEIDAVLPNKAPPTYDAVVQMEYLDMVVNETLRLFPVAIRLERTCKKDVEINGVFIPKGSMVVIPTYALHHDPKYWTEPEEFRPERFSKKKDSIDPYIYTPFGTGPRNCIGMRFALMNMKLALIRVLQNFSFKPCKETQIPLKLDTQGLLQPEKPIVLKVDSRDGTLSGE

[8] = molecular target: T2, Cytochrome P450 2C8 (Homo sapiens, UniProt P10632); assay: Inhibition of CYP2C8 in human liver microsomes by LC-MS/MS analysis; format: ADME
T2 sequence (P10632 whole entry): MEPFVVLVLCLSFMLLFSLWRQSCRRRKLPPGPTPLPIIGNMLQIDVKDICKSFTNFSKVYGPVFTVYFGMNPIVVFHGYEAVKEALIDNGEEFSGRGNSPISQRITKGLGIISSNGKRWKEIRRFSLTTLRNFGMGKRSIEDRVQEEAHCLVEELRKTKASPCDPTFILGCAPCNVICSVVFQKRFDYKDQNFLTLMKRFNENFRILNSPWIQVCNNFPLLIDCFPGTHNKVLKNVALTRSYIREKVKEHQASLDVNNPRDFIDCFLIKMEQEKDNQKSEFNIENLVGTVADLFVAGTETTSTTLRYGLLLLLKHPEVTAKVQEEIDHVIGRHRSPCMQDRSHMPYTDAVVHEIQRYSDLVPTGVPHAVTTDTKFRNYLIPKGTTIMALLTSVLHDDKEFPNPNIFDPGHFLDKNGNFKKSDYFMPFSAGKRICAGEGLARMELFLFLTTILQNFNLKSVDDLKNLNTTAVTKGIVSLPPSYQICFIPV

[9] = Cmax in CD(SD) rat at 1 mg/kg, po; format: ADME, organism-based; design: dose 1 mg/kg, route oral; settings: in vivo
[10] = Metabolic stability in Sprague-Dawley rat liver microsomes assessed as compound remaining at 10 uM after 120 mins in presence of NADPH by Radio-HPLC analysis; format: ADME, microsome; settings: read-out: Stability
[11] = Metabolic stability in cynomolgus monkey liver microsomes assessed as compound remaining at 10 uM after 120 mins in presence of NADPH by Radio-HPLC analysis; format: ADME, Macaca fascicularis, microsome; settings: read-out: Stability
[12] = Total clearance in CD(SD) rat at 0.3 mg/kg, iv; format: ADME, organism-based; settings: in vivo
[13] = MRT in CD(SD) rat at 0.3 mg/kg, iv; format: ADME, organism-based; settings: in vivo
[14] = molecular target: T3, Cytochrome P450 2B6 (Homo sapiens, UniProt P20813); assay: Inhibition of CYP2B6 in human liver microsomes by LC-MS/MS analysis; format: ADME
T3 sequence (P20813 whole entry): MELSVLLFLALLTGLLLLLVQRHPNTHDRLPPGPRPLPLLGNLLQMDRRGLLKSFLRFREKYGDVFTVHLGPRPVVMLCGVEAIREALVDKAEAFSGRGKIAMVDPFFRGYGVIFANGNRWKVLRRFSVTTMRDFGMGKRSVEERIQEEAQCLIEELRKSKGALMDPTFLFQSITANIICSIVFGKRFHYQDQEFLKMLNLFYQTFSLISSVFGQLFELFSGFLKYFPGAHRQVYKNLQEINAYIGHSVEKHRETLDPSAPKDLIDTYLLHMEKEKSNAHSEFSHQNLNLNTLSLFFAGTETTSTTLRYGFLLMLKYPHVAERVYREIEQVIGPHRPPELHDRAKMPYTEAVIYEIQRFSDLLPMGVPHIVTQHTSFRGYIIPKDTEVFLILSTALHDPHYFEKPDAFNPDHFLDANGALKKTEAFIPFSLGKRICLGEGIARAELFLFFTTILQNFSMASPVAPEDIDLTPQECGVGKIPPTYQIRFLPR

[15] = Half life in CD(SD) rat at 0.3 mg/kg, iv; format: ADME, organism-based; settings: in vivo
[16] = molecular target: Voltage-gated inwardly rectifying potassium channel KCNH2 (Homo sapiens, UniProt Q12809); assay: Inhibition of human ERG expressed in HEK293 cells at holding potential of -80 mV by whole cell patch clamp method; format: cell-based
Voltage-gated inwardly rectifying potassium channel KCNH2, sequence (Q12809 whole entry): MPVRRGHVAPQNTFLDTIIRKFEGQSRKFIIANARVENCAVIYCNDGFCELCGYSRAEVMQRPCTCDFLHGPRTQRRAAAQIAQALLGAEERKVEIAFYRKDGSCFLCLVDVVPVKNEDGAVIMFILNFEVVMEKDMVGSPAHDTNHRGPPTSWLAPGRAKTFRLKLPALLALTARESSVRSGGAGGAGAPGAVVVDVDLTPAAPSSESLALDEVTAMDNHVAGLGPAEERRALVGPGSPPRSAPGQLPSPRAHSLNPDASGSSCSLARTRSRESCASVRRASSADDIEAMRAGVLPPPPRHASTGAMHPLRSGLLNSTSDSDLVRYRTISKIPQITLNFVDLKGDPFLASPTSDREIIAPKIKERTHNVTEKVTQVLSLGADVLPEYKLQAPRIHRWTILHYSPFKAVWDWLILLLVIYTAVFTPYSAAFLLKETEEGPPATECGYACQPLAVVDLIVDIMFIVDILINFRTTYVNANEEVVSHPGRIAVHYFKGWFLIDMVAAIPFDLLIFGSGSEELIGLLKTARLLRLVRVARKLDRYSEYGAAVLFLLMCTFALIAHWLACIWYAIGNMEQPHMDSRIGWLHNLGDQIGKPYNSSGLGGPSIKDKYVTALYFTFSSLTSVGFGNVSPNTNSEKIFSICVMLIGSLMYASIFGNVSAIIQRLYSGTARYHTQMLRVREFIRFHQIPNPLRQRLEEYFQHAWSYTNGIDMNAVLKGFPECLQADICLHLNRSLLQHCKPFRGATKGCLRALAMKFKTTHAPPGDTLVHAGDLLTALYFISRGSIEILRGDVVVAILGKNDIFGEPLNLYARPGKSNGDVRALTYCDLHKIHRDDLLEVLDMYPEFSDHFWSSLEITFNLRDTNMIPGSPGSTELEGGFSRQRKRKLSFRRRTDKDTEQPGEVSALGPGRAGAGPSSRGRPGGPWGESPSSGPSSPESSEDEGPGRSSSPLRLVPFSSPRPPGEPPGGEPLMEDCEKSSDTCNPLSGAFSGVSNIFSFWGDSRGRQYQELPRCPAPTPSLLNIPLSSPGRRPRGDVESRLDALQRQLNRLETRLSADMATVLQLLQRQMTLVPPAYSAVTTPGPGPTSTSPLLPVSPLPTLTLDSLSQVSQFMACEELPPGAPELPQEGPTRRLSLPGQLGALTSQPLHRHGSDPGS

[17] = molecular target: T4, Cytochrome P450 2A6 (Homo sapiens, UniProt P11509); assay: Inhibition of CYP2A6 in human liver microsomes by LC-MS/MS analysis; format: ADME
T4 sequence (P11509 whole entry): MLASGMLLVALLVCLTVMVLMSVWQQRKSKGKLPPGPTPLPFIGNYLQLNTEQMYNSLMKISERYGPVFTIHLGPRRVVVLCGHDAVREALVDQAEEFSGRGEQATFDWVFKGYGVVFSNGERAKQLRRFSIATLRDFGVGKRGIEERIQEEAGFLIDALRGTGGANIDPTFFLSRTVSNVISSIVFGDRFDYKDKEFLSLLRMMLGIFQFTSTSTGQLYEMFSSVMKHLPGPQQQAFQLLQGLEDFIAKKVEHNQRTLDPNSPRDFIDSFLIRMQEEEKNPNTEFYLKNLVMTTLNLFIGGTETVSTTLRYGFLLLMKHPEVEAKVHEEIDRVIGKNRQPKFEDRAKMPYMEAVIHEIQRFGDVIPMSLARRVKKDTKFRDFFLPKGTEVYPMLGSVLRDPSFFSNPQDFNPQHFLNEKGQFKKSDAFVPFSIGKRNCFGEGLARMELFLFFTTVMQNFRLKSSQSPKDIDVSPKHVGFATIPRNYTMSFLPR

[18] = molecular target: Cytochrome P450 2C9 (Homo sapiens, UniProt P11712); assay: Inhibition of CYP2C9 in human liver microsomes by LC-MS/MS analysis; format: ADME
Cytochrome P450 2C9, sequence (P11712 whole entry): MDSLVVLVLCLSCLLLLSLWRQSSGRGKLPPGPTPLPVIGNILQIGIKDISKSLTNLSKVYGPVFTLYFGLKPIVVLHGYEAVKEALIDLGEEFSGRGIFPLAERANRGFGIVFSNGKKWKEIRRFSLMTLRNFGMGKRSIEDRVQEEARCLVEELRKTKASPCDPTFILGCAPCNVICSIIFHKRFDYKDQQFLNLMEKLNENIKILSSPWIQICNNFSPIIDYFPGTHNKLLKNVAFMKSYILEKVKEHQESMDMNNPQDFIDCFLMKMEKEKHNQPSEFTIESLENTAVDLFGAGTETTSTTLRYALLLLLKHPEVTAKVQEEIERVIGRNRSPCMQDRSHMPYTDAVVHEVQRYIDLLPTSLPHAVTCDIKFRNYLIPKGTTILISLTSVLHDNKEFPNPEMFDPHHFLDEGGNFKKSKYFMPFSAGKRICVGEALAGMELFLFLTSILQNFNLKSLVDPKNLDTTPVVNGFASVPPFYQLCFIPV

[19] = Solubility of the compound in FeSSIF after 4 hrs by LC-MS analysis; format: physicochemical
[20] = Metabolic stability in human pooled liver microsomes assessed as compound remaining at 10 uM after 120 mins in presence of NADPH by Radio-HPLC analysis; format: ADME, microsome; settings: read-out: Stability
[21] = Oral bioavailability in CD(SD) rat at 1 mg/kg; format: ADME, organism-based; settings: in vivo
[22] = molecular target: Cytochrome P450 2D6 (Homo sapiens, UniProt P10635); assay: Inhibition of CYP2D6 in human liver microsomes by LC-MS/MS analysis; format: ADME
Cytochrome P450 2D6, sequence (P10635 whole entry): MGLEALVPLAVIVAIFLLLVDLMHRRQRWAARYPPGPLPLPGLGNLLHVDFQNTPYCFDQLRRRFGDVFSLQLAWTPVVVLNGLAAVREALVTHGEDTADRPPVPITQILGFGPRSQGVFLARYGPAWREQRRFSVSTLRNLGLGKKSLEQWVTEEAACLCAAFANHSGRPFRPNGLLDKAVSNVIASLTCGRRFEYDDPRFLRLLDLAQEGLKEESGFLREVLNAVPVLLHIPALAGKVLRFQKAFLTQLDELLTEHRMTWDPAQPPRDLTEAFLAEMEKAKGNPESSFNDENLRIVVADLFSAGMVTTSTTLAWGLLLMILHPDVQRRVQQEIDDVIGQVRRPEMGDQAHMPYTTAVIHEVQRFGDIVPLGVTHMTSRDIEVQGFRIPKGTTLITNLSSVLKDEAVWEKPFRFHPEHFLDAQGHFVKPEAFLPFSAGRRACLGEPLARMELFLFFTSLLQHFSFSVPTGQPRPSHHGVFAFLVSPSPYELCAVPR

[23] = molecular target: Egl nine homolog 1 (Homo sapiens, UniProt Q9GZT9); assay: Inhibition of PHD2 in human Hep3B cells assessed as increase in EPO release after 24 hrs by ELISA; format: cell-based
Egl nine homolog 1, sequence (Q9GZT9 whole entry): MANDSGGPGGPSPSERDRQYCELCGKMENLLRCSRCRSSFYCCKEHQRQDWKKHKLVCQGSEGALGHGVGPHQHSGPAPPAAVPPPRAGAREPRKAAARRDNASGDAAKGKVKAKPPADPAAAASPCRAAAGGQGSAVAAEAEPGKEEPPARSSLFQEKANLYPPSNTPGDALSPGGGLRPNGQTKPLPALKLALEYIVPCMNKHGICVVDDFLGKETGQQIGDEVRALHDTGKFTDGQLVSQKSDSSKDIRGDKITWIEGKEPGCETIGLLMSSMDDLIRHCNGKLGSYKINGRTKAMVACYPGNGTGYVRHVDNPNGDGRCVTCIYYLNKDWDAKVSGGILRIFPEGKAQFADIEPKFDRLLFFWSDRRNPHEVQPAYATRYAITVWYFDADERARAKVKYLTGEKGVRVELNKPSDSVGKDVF

[24] = molecular target: Cytochrome P450 3A4 (Homo sapiens, UniProt P08684); assay: Inhibition of CYP3A4 in human liver microsomes using midozolam as substrate by LC-MS/MS analysis; format: ADME
Cytochrome P450 3A4, sequence (P08684 whole entry): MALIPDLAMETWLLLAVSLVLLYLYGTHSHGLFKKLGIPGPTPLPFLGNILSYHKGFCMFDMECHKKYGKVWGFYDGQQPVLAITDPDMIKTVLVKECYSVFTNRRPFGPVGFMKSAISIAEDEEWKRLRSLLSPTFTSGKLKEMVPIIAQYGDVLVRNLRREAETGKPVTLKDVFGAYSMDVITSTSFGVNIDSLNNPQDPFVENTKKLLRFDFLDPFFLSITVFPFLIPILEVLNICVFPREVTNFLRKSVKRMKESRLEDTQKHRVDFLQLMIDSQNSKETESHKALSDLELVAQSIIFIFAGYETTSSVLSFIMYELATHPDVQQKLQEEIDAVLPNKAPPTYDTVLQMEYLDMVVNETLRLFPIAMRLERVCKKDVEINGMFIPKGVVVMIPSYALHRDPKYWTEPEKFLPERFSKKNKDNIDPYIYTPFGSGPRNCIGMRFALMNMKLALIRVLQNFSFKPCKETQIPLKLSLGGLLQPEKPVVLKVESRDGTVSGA

[25] = Solubility of the compound in FaSSIF after 4 hrs by LC-MS analysis; format: physicochemical
[26] = Volume of distribution at steady state in CD(SD) rat at 0.3 mg/kg, iv; format: ADME, organism-based; settings: in vivo, read-out: Vdss
[27] = Tmax in CD(SD) rat at 1 mg/kg, po; format: ADME, organism-based; settings: in vivo
[28] = molecular target: Cytochrome P450 2C19 (Homo sapiens, UniProt P33261); assay: Inhibition of CYP2C19 in human liver microsomes by LC-MS/MS analysis; format: ADME
Cytochrome P450 2C19, sequence (P33261 whole entry): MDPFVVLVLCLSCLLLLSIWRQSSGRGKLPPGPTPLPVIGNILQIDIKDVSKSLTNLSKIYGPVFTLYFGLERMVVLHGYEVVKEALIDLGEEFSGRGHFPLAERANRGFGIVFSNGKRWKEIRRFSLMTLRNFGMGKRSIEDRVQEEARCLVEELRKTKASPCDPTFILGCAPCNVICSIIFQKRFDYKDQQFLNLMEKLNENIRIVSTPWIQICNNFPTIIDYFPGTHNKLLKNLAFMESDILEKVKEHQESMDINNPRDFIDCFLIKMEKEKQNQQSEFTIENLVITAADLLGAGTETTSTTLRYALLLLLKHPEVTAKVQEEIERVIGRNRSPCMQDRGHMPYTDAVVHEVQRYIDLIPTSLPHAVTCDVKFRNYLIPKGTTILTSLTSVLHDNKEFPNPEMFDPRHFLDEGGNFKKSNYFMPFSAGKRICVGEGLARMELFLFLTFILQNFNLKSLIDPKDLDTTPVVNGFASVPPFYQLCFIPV

[29] = Metabolic stability in Beagle dog liver microsomes assessed as compound remaining at 10 uM after 120 mins in presence of NADPH by Radio-HPLC analysis; format: ADME, Canis lupus familiaris, microsome; settings: read-out: Stability
[30] = tested on: Rattus norvegicus; assay: Antianemic activity in CD(SD) rat assessed as increase in hemoglobin levels at 10 mg/kg, po administered once daily for 28 days; format: functional, organism-based
[31] = tested on: Rattus norvegicus; assay: Antianemic activity in CD(SD) rat assessed as increase in hemoglobin levels at 3 mg/kg, po administered once daily for 28 days; format: functional, organism-based

Cl.O=C(O)CNC(=O)c1c(O)ccc2ncnn12
Papp A→B at 2 h, 25 µM [1]: 0.4 ×10⁻⁶ cm/s

O=C(O)CNC(=O)c1nc(Cl)c2ccccc2c1O
Papp A→B at 2 h, 25 µM [1]: 63 ×10⁻⁶ cm/s

CCCCCc1cc(O)c(C(=O)NCC(=O)O)c2ncnn12.Cl
Activity [2]: 2300 pg/mL
Activity [3]: 11000 pg/mL
Activity [4]: Toxic
Papp A→B at 2 h, 25 µM [1]: 20 ×10⁻⁶ cm/s

Cl.O=C(O)CNC(=O)c1c(O)cc(C2CCCCC2)c2ncnn12
Activity [2]: <450 pg/mL
Papp A→B at 2 h, 25 µM [1]: 18 ×10⁻⁶ cm/s

O=C(O)CNC(=O)c1c(O)cc(-c2cccc(Cl)c2)c2ncnn12
Activity [2]: <265 pg/mL
Papp A→B at 2 h, 25 µM [1]: 15 ×10⁻⁶ cm/s

Cl.O=C(O)CNC(=O)c1c(O)cc(-c2ccccc2)c2ncnn12
Activity [2]: <260 pg/mL
Papp A→B at 2 h, 25 µM [1]: 6.5 ×10⁻⁶ cm/s

Cl.O=C(O)CNC(=O)c1c(O)cc(CCc2ccccc2)n2ncnc12
IC50 [5]: > 100 µM
Activity [6]: Dose-dependent effect
IC50 [7]: > 100 µM
IC50 [8]: > 100 µM
Cmax [9]: 2700 ng/mL
Activity [2]: 6500 pg/mL
remaining at 2 h, 10 µM [10]: 98%
remaining at 2 h, 10 µM [11]: 94%
clearance [12]: 2.7 mL/min/kg
MRT [13]: 1.8 h
IC50 [14]: > 100 µM
half-life [15]: 1.4 h
IC50 [16]: > 100 µM
IC50 [17]: > 100 µM
IC50 [18]: > 100 µM
solubility at 4 h [19]: 1300 µM
Activity [3]: 17000 pg/mL
remaining at 2 h, 10 µM [20]: 94%
bioavailability [21]: 75%
IC50 [22]: > 100 µM
EC50 [23]: 5.7 µM
IC50 [24]: > 100 µM
solubility at 4 h [25]: > 2900 µM
Vd [26]: 0.28 L/kg
Tmax [27]: 0.33 h
IC50 [28]: > 100 µM
Activity [4]: Non-Toxic
Papp A→B at 2 h, 25 µM [1]: 13 ×10⁻⁶ cm/s
remaining at 2 h, 10 µM [29]: 100%

Cl.O=C(O)CNC(=O)c1c(O)cc(C2CCCCC2)n2ncnc12
Activity [2]: 540 pg/mL
Papp A→B at 2 h, 25 µM [1]: 21 ×10⁻⁶ cm/s

CCCCc1cc(O)c(C(=O)NCC(=O)O)c2ncnn12.Cl
Activity [2]: 3700 pg/mL
Activity [30]: Active
Activity [3]: 2200 pg/mL
Activity [4]: Non-Toxic
Papp A→B at 2 h, 25 µM [1]: 9.9 ×10⁻⁶ cm/s
Activity [31]: inactive

CCCCCc1cn2ncnc2c(C(=O)NCC(=O)O)c1O.Cl
Activity [2]: <330 pg/mL
Papp A→B at 2 h, 25 µM [1]: 15 ×10⁻⁶ cm/s

Cl.O=C(O)CNC(=O)c1c(O)cc(CCc2ccc(F)cc2)n2ncnc12
Activity [2]: 1000 pg/mL
Papp A→B at 2 h, 25 µM [1]: 12 ×10⁻⁶ cm/s

CCCc1cc(O)c(C(=O)NCC(=O)O)c2ncnn12.Cl
Activity [2]: <300 pg/mL
Papp A→B at 2 h, 25 µM [1]: 2.1 ×10⁻⁶ cm/s

Cc1nc2c(C(=O)NCC(=O)O)c(O)cc(CCc3ccccc3)n2n1.Cl
Activity [2]: <260 pg/mL
Papp A→B at 2 h, 25 µM [1]: 8.9 ×10⁻⁶ cm/s

O=C(O)CNC(=O)c1c(O)cc(-c2cccc(Cl)c2)n2ncnc12
Activity [2]: >15000 pg/mL
Activity [3]: 7900 pg/mL
Activity [4]: Toxic
Papp A→B at 2 h, 25 µM [1]: 6.1 ×10⁻⁶ cm/s

Cl.O=C(O)CNC(=O)c1c(O)cc(CCc2ccccc2)c2ncnn12
Activity [2]: <320 pg/mL
Papp A→B at 2 h, 25 µM [1]: 9.3 ×10⁻⁶ cm/s

Cl.O=C(O)CNC(=O)c1c(O)ccn2cnnc12
Papp A→B at 2 h, 25 µM [1]: < 0.4 ×10⁻⁶ cm/s

O=C(O)CNC(=O)c1c(O)ccn2ccnc12
Papp A→B at 2 h, 25 µM [1]: 0.8 ×10⁻⁶ cm/s

CCc1c(O)c(C(=O)NCC(=O)O)c2ncnn2c1CC.Cl
Activity [2]: 1100 pg/mL
Papp A→B at 2 h, 25 µM [1]: 9.3 ×10⁻⁶ cm/s

Cl.O=C(O)CNC(=O)c1c(O)ccn2ncnc12
Papp A→B at 2 h, 25 µM [1]: 0.86 to 0.9 ×10⁻⁶ cm/s

Cl.O=C(O)CNC(=O)c1c(O)cc(-c2ccccc2)n2ncnc12
Activity [2]: <320 pg/mL
Papp A→B at 2 h, 25 µM [1]: 2.5 ×10⁻⁶ cm/s
